Measurements reported in patent US8697731B2, “Derivatives of 2-pyridin-2-yl-pyrazol-3(2H)-one, preparation and therapeutic use thereof” (Sanofi, priority 2008, dated 2014).
Counter-ions that a name gives are not always drawn.

How the values were obtained:
[1] = test system: EPO; assay: Measurement of the secretion of EPO by Hep3B hepatocytes (ELISA); assay type: cell-based; conditions: Homo sapiens, supernatant of Hep3B cells, 18 hours under normoxia, concentration that produces 50% of the maximum response of this same compound
Method: (§1) The test is an ELISA test for measuring VEGF and EPO in the supernatant of Hep3B cells treated under hypoxia or with deferoxamine as controls or with the potential HIF activators. The test was adapted to a 96-well plate, allowing greater compound screening capacity.
(§2) 2.3.1 Experiment Plan • 1) Inoculation of the cells on D0 • 2) Adherence for 6 hours under normoxia • 3) Preparation and addition of the products (Biomek 2000 and FX) • 4) Incubation under normoxia for 18 hours • 5) EPO and VEGF assay in the supernatant on D+1
(§3) The cells are subcultured into 100 μl of culture medium (10% FCS) in black, opaque-bottomed 96-well plates (reference Costar 3916) at 30000 cells/well, with Multidrop.
(§4) The test products are prepared at 10^−2M in 100% DMSO and then diluted to […] in medium containing 0.1% FCS (6 μl in 194 μl of MEM). 200 μl of each compound are deposited in column 12 of a 96-well plate. Dilution ranges from 3×10^−4M to 3×10^−8M are prepared with Biomek 2000 (programme: range of 9 points in series). 100 μl of MEM 0.1% FCS and Deferoxamine 5×10^−3M are added as controls to column 3 and, respectively, to wells A,B,C,D & wells E,F,G,H
(§5) The medium of the cells inoculated the day before into 96-well plates is changed for 90 μl of medium containing 0.1% FCS and 10 μl are distributed with FX 96 from the 96-well DL plates to the cell plates.
(§6) The cell plates thus treated are placed for 18 hours in an incubator at 37° C. (ambient O2, 6% CO2).
(§7) The supernatants (80 μl) of the Hep3B cells in the 96-well plates treated with the potential HIF activators are recovered with a multichannel pipette for simultaneous assay of the VEGF and the EPO by ELISA according to the supplier's instructions (Kit EPO Mesoscale (ref K15122B-2)).
(§8) The activating activity of a compound with respect to HIF is given by the concentration that produces 50% of the maximum response of this same compound in Table IV.

[2] = test system: HIF1-alpha; assay: Measurement of the stabilization of HIF1-alpha in HEKEA cells (beta-galactosidase complementation); assay type: cell-based, human; conditions: HEKEA_HIF1-alphaPLBL cells, 6 hours under normoxia, luminescence; molar concentration that produces 50% of the maximum response of this same compound
Text: Furthermore, a subject of the invention is also a uniform test for the direct measurement by beta-galactosidase complementation of the amount of HIF1-alpha protein in the nucleus of cells, preferably HEK cells, after treating the said cells with one or more test compounds, which consists in: • (a) inoculating, preferably in 384-well plates, the said cells in a suitable culture medium, preferably 1% foetal calf serum (abbreviated as FCS); • (b) adding the test compound(s) at a suitable concentration in a suitable solvent to the cells previously inoculated in the said culture medium; preferably the test compounds are diluted in 0.1% FCS; • (c) incubating the said cells thus prepared in an indicator at about 37° C., advantageously for about 6 hours; • (d) lysing the cells with a lysis buffer containing a chemiluminescent substrate for beta-galactosidase; • (e) incubating in the absence of light, before reading and measuring the luminescence, which is a function of the beta-galactosidase activity.
The test is a cell test based on the principle of enzyme complementation, the enzyme used herein being beta-galactosidase. HEKEA cells are HEK cells stably expressing, and restricted in their nucleus, mutant beta-galactosidase (omega fragment, also known as EA) (line sold by DiscoverX). This construct makes it possible to obtain beta-galactosidase activity only when the protein comprising the Prolabel complementation fragment has migrated into the nucleus.
The protein of interest comprising the Prolabel fragment is in this case an HIF1-alpha or HIF1-alpha mutated at the two prolines 402 and 564 replaced with alanines, is C-terminal fused via molecular biology (DiscoverX vector sold by Clontech) with the small complementation peptide fragment (Prolabel or ED, about 4 kDa). The vector coding for the chimeric protein HIF1-alpha_Prolabel is then transfected into HEKEA cells to obtain stable clones (HEKEA_HIF1-alphaPLBL).
The amount of C-terminal Prolabel-“labelled” HIF1-alpha protein obtained after treating the cells to hypoxia or compounds that are potentially HIF activators is measured by adding to the cells a lysis buffer containing a chemiluminescent substrate for beta-galactosidase.
The measurement of the beta-galactosidase activity will be proportional to the amount of Prolabel and thus of HIF1-alpha that has migrated into the nucleus of the cells.
1.3.1 Experiment Plan • 1) Inoculation of the cells on D0 • 2) Adherence for 24 hours under normoxia • 3) Preparation and addition of the products (Biomek 2000 and FX) on D+1 • 4) Incubation under normoxia for 6 hours • 5) Reading of the plates (by luminescence)
The cells are inoculated with Multidrop in white, opaque-bottomed 384-well plates (Greiner ref 3704), in 30 μl of culture medium (1% FCS) a 10000 cells/well (cell plate).
The test products are prepared at 3×10^−2 M in 100% DMSO and then diluted to 3×10^−4 M in medium containing 0.1% FCS (10 μl in 990 μl of MEM). They are then deposited by hand into column 12 of a round-bottomed 96-well plate (200 μl of each compound) known as the dilution plate (dl). The complete DL plate of 3×10^−4 M to 10^−9 M is then prepared with Biomek 2000 (programme: range of 10 points in series). For the references and controls, 100 μl of DMEM containing 0.1% FCS are added to column 1, 100 μl of Deferoxamine 10^−3M to column 2, wells A B C D and 100 μl of Deferoxamine 5×10^−3 M to column 2, wells E F G H.
3.3 μL are taken from the DL plate by pipetting with a Biomek FX 96 and placed in horizontal duplicate (columns 1 to 24) in each 384-well cell plate (HEKEA_HIF1-alphaPLBL cell plate).
The cells are then placed for 6 hours in an incubator at 37° C. (ambient O2, 6% CO2).
The kit used is the Prolabel chemiluminescent kit (Ref 93-0001 DiscoverX). […]

[3] = test system: VEGF; assay: Measurement of the secretion of VEGF by Hep3B hepatocytes (ELISA); assay type: cell-based; conditions: Homo sapiens, supernatant of Hep3B cells, 18 hours under normoxia, concentration that produces 50% of the maximum response of this same compound
Method: as §1, §2, §3, §4, §5, §6, §7, §8

| SMILES | melting point [°C] | EC50 [2] [nM] | EC50 [1] [nM] | EC50 [3] [nM] |
| --- | --- | --- | --- | --- |
| O=c1c2c([nH]n1-c1ccccn1)CSC2 [Compound 1, 2-pyridin-2-yl-1,2,4,6-tetrahydro-3H-thieno[3,4-c]pyrazol-3-one] | 152 | 8800 | 2900 | 3000 |
| O=c1c2c([nH]n1-c1ccc(S(=O)(=O)N3CCCC3)cn1)CSC2 [Compound 15, 2-[5-(pyrrolidin-1-ylsulfonyl)pyridin-2-yl]-1,2,4,6-tetrahydro-3H-thieno[3,4-c]pyrazol-3-one] | 152 | 16000 | 2800 | 3000 |
| O=c1c2c([nH]n1-c1ccc(S(=O)(=O)NC3CC3)cn1)CSC2 [Compound 16, N-cyclopropyl-6-(3-oxo-4,6-dihydro-1H-thieno[3,4-c]pyrazol-2(3H)-yl)pyridine-3-sulfonamide] | 262 | 8600 | 3500 | 3000 |
| O=c1c2c([nH]n1-c1ccc(S(=O)(=O)Nc3ccccn3)cn1)CSC2 [Compound 23, 6-(3-oxo-4,6-dihydro-1H-thieno[3,4-c]pyrazol-2(3H)-yl)-N-(pyridin-2-yl)pyridine-3-sulfonamide] | > 260 | 12000 | – | – |
| CN(Cc1ccccn1)S(=O)(=O)c1ccc(-n2[nH]c3c(c2=O)CSC3)nc1 [Compound 27, N-methyl-6-(3-oxo-4,6-dihydro-1H-thieno[3,4-c]pyrazol-2(3H)-yl)-N-(pyridin-2-ylmethyl)pyridine-3-sulfonamide] | – | 9500 | – | – |
| CC(C)(C)NC(=O)c1ccc(-n2nc3c(c2O)CSC3)nc1 [Compound 33, sodium 2-[5-(tert-butylcarbamoyl)pyridin-2-yl]-2,6-dihydro-4H-thieno[3,4-c]pyrazol-3-olate] | – | 9400 | – | – |
| COc1ccc(-n2nc3c(c2[O-])CSC3)nc1.[Na+] [Compound 34, sodium 2-(5-methoxypyridin-2-yl)-2,6-dihydro-4H-thieno[3,4-c]pyrazol-3-olate] | > 220 | 10000 | – | – |
| COc1ccnc(-n2[nH]c3c(c2=O)CSC3)c1 [Compound 59, 2-(4-methoxypyridin-2-yl)-1,2,4,6-tetrahydro-3H-thieno[3,4-c]pyrazol-3-one] | 254 | – | 2600 | 3100 |
| CN(C)c1ccnc(-n2[nH]c3c(c2=O)CSC3)c1 [Compound 60, 2-[4-(dimethylamino)pyridin-2-yl]-1,2,4,6-tetrahydro-3H-thieno[3,4-c]pyrazol-3-one hydrochloride] | – | 21000 | – | – |

Continued by falling EC50 [2], values first:

| melting point [°C] | EC50 [2] [nM] | SMILES | EC50 [1] [nM] | EC50 [3] [nM] |
| --- | --- | --- | --- | --- |
| 156 | 6000 | O=c1c2c([nH]n1-c1ccccn1)CCC2 [Compound 7, 2-(pyridin-2-yl)-1,4,5,6-tetrahydrocyclopenta[c]pyrazol-3(2H)-one] | – | – |
| 176 | 5200 | CCN(c1ccccc1)S(=O)(=O)c1ccc(-n2[nH]c3c(c2=O)CSCC3)nc1 [Compound 13, N-ethyl-6-(3-oxo-1,4,6,7-tetrahydrothiopyrano[4,3-c]pyrazol-2(3H)-yl)-N-phenylpyridine-3-sulfonamide] | 900 | 1000 |
| > 250 | 3900 | Cc1ccnc(-n2nc3c(c2[O-])CSC3)c1.[Na+] [Compound 62, sodium 2-(4-methylpyridin-2-yl)-2,6-dihydro-4H-thieno[3,4-c]pyrazol-3-olate] | – | – |
| 192 | 3800 | CCN(CC)S(=O)(=O)c1ccc(-n2[nH]c3c(c2=O)CSC3)nc1 [Compound 38, N,N-diethyl-6-(3-oxo-4,6-dihydro-1H-thieno[3,4-c]pyrazol-2(3H)-yl)pyridine-3-sulfonamide] | – | – |
| – | 2500 | CCN(c1ccccc1)S(=O)(=O)c1ccc(-n2nc3c(c2O)N(Cc2ccccc2)C(=O)CC3)nc1 [Compound 35, sodium 4-benzyl-2-{5-[ethyl(phenyl)sulfamoyl]pyridin-2-yl}-5-oxo-4,5,6,7-tetrahydro-2H-pyrazolo[4,3-b]pyridin-3-olate] | 1700 | 1100 |
| 200 | 2200 | CCN(c1ccccc1)S(=O)(=O)c1ccc(-n2[nH]c3c(c2=O)CCCCCC3)nc1 [Compound 37, N-ethyl-6-(3-oxo-1,3,4,5,6,7,8,9-octahydro-2H-cycloocta[c]pyrazol-2-yl)-N-phenylpyridine-3-sulfonamide] | – | – |
| – | 1900 | CCc1ccnc(-n2[nH]c3c(c2=O)CSC3)c1 [Compound 61, sodium 2-(4-ethylpyridin-2-yl)-2,6-dihydro-4H-thieno[3,4-c]pyrazol-3-olate] | 2200 | 2800 |
| 208 | 1400 | CCN(c1ccccc1)S(=O)(=O)c1ccc(-n2[nH]c3c(c2=O)CSC3)nc1 [Compound 9, N-ethyl-6-(3-oxo-4,6-dihydro-1H-thieno[3,4-c]pyrazol-2(3H)-yl)-N-phenylpyridine-3-sulfonamide] | 700 | 660 |
| – | 1300 | CCN(C(C)(C)C)S(=O)(=O)c1ccc(-n2nc3c(c2O)CSC3)nc1 [Compound 32, sodium 2-{5-[tert-butyl(ethyl)sulfamoyl]pyridin-2-yl}-2,6-dihydro-4H-thieno[3,4-c]pyrazol-3-olate] | 2600 | 3200 |
| – | 1200 | CN(C(C)(C)C)S(=O)(=O)c1ccc(-n2nc3c(c2O)CSC3)nc1 [Compound 36, sodium 2-{5-[tert-butyl(methyl)sulfamoyl]pyridin-2-yl}-2,6-dihydro-4H-thieno[3,4-c]pyrazol-3-olate] | 1600 | 2000 |
| – | 650 | CC(C)(C)OC(=O)c1ccc(-n2[nH]c3c(c2=O)CSC3)nc1 [Compound 30, tert-butyl 6-(3-oxo-4,6-dihydro-1H-thieno[3,4-c]pyrazol-2(3H)-yl)pyridine-3-carboxylate] | 1500 | 1800 |
